Measurements reported in patent US8889705B2, “Noscapine analogs and their use in treating cancers” (Emory University, priority 2007, dated 2014).

Tests used:
tubulin [1] = biological target: T1, tubulin; experiment: Tubulin binding assay (fluorescence titration, quenching of intrinsic tubulin fluorescence); parameters: species or system mammalian; conditions: 2 μM tubulin, 45 min at 37° C., double reciprocal plot; read-out: dissociation constant (Kd) for binding to tubulin
T1 construct: other: 2 μM tubulin, 45 min at 37° C., double reciprocal plot; rate and extent of tubulin polymerization; other: 25 μM or 100 μM
Protocol: Fluorescence titration for determining the tubulin binding parameters was performed as described previously (Gupta and Panda, 2002). In brief, 9-nitro-nos (0-100 μM) was incubated with 2 μM tubulin in 25 mM PIPES, pH 6.8, 3 mM MgSO4 and 1 mM EGTA for 45 min at 37° C. The relative intrinsic fluorescence intensity of tubulin was then monitored in a JASCO FP-6500 spectrofluorometer (JASCO, Tokyo, Japan) using a cuvette of 0.3-cm path length, and the excitation wavelength was 295 nm. The fluorescence emission intensity of 9-nitro-nos at this excitation wavelength was negligible. A 0.3-cm path-length cuvette was used to minimize the inner filter effects caused by the absorbance of 9-nitro-nos at higher concentration ranges. In addition, the inner filter effects were corrected using a formula Fcorrected=Fobserved·antilog [(Aex+Aem)/2], where Aex is the absorbance at the excitation wavelength and Aem is the absorbance at the emission wavelength. The dissociation constant (Kd) was determined by the formula: 1/B=Kd/[free ligand]+1, where B is the fractional occupancy and [free ligand] is the concentration of free noscapine or 9-nitro-nos. The fractional occupancy (B) was determined by the formula B=ΔF/ΔFmax, where ΔF is the change in fluorescence intensity when tubulin and its ligand are in equilibrium and ΔFmax is the value of maximum fluorescence change when tubulin is completely bound with its ligand. ΔFmax was calculated by plotting 1/ΔF versus 1/ligand using total ligand concentration as the first estimate of free ligand concentration.
Fluorescence titration for determining the tubulin binding parameters was performed as described previously. In brief, 9-F-nos, 9-Cl-nos, 9-Br-nos or 9-I-nos (0-100 μM) was incubated with 2 μM tubulin in 25 mM PIPES, pH 6.8, 3 mM MgSO4, and 1 mM EGTA for 45 min at 37° C. The relative intrinsic fluorescence intensity of tubulin was then monitored in a JASCO FP-6500 spectrofluorometer (JASCO, Tokyo, Japan) using a cuvette of 0.3-cm path length, and the excitation wavelength was 295 nm. The fluorescence emission intensity of noscapine and its derivatives at this excitation wavelength was negligible. A 0.3-cm path-length cuvette was used to minimize the inner filter effects caused by the absorbance of these agents at higher concentration ranges. In addition, the inner filter effects were corrected using a formula F corrected=F observe·antilog [(Aex+Aem)/2], where Aex is the absorbance at the excitation wavelength and Aem is the absorbance at the emission wavelength. The dissociation constant (Kd) was determined by the formula: 1/B=Kd/[free ligand]+1, where B is the fractional occupancy and [free ligand] is the concentration of 9-F-nos, 9-Cl-nos, 9-Br-nos or 9-I-nos. The fractional occupancy (B) was determined by the formula B=ΔF/ΔFmax, where ΔF is the change in fluorescence intensity when tubulin and its ligand are in equilibrium and ΔFmax is the value of maximum fluorescence change when tubulin is completely bound with its ligand. ΔFmax was calculated by plotting 1/ΔF versus 1/[free ligand].

tubulin [2] = tested on: T1, tubulin; experiment: Tubulin polymerization assay (light scattering at 550 nm); assay type: biochemical, mammalian; conditions: 25 μM or 100 μM
Protocol: Mammalian brain tubulin (1.0 mg/ml) was mixed with different concentrations of 9-nitro-nos (25 or 100 μM) at 0° C. in an assembly buffer (100 mM PIPES at pH 6.8, 3 mM MgSO4, 1 mM EGTA, 1 mM GTP, and 1M sodium glutamate). Polymerization was initiated by raising the temperature to 37° C. in a water bath. The rate and extent of the polymerization reaction were monitored by light scattering at 550 nm, using a 0.3-cm path length cuvette in a JASCO FP-6500 spectrofluorometer (JASCO, Tokyo, Japan) for 30 minutes.

CEM/VLB100 cells = experiment: In vitro cell proliferation MTS assay; assay type: cell-based; conditions: Homo sapiens, CEM/VLB100, 72 hours
Protocol: (§1) Suspension cells (CEM, CEMNLB100 and CEM/VM-1-5) were cultured in RPMI-1640 media containing 10% FBS and then seeded into 96-well plates at a density of 5×10^3 cells per well and were treated with increasing gradient concentrations of 9-nitro-nos for 72 hours. Measurement of cell proliferation was performed colorimetrically by 3-(4,5-dimethylthiazol-2-yl)-5-(3-carboxymethoxyphenyl)-2-(4-sulphophenyl)-2H-tetrazolium, inner salt (MTS) assay, using the CellTiter96 AQueous One Solution Reagent (Promega, Madison, Wis.). Cells were exposed to MTS for 3 hours and absorbance was measured using a microplate reader (Molecular Devices, Sunnyvale, Calif.) at an optical density (OD) of 490 nm. The percentage of cell survival as a function of drug concentration for both the assays was then plotted to determine the IC50 value, which stands for the drug concentration needed to prevent cell proliferation by 50%.

CEM/VM-1-5 cells = experiment: In vitro cell proliferation MTS assay; assay type: cell-based; conditions: Homo sapiens, CEM/VM-1-5, 72 hours
Protocol: as §1

1A9/PTX22 cells = experiment: TUNEL assay for apoptosis (flow cytometry); assay type: cell-based, human; conditions: 1A9/PTX22, 50 μM, 72 hours
Protocol: DNA strand breaks were identified by using the TUNEL assay as described. In brief, 1A9/PTX22 cells were incubated with 50 μM 9-nitro-nos for 72 hours. Cells were pelleted and washed with ice-cold PBS twice. Cells were then fixed in 1% paraformaldehyde, and apoptosis was detected using the APO-BrdU TUNEL Assay Kit from Molecular Probes (Eugene, Oreg.) according to the manufacturer's instructions. This assay was run on a flow cytometer equipped with a 488 nm argon laser as the light source. Propidium iodide (total cellular DNA) and Alexa-Fluor 488 (apoptotic cells) were the two dyes used. PI fluoresces at about 623 nm and Alexa-Fluor 488 at about 520 nm when excited at 488 nm. […] The gating display was the standard dual parameter DNA doublet discrimination display with the DNA area signal on the Y-axis and the DNA width signal on the X-axis. From this display, a gate was generated around the non-clumped cells and the second gated dual parameter display was generated with the DNA (linear red fluorescence) on the X-axis and the Alexa-Fluor 488 (log green fluorescence) on the Y-axis. Apoptotic cells were subsequently counted as those expressing high Alexa-Fluor 488 fluorescence. Confocal micrographs were also obtained for the TUNEL-stained cells using a 63× objective.

- Kd (tubulin [1]): 86 ± 6 µM
SMILES: COc1ccc2c(c1OC)C(=O)O[C@@H]2[C@H]1c2c(c([N+](=O)[O-])c3c(c2OC)OCO3)CCN1C [9-nitro-nos, (S)-6,7-dimethoxy-3-((R)-4-methoxy-6-methyl-9-nitro-5,6,7,8-tetrahydro-[1,3]dioxolo[4,5-g]isoquinolin-5-yl)isobenzofuran-1(3H)-one]
- rate and extent of tubulin polymerization (tubulin [2]): did not inhibit the rate or extent of tubulin polymerization
- IC50 (CEM/VLB100 cells): 8.1 µM
- IC50 (CEM/VM-1-5 cells): 6.9 µM
- TUNEL-positive cells (1A9/PTX22 cells): 55.9%
